Reference: patent publication US20240317721A1, “PYRAZOLYL DERIVATIVES AS INHIBITORS OF THE KRAS MUTANT PROTEIN” (NOVARTIS AG, priority 2021, published 2024)

Target: KRasG12C (M1-K169, biotinylated on the N-terminus) (Homo sapiens (Human), UniProt P01116, G12C)
Assay: Covalent competition assay: scintillation proximity assay (SPA) quantifying covalent modification of KRASG12C
Assay type: binding
Settings: competition with radiolabeled covalent probe (Compound B/Compound A), 2 hours incubation, 10 nM KRasG12C
Summary of the method: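 Test compounds compete with a radiolabeled covalent probe for modification of N-terminally biotinylated KRasG12C(M1-K169):GDP, final 10 nM protein, 25 nM radio-ligand, 475 nM unlabelled ligand, 2 h with agitation in 20 mM Tris-HCl pH 7.5, 150 mM NaCl, 0.1 mM MgCl2, 0.01% Tween-20.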

Row | SMILES | IC50
1 | C=CC(=O)N1CC2(CC(n3nc(N4CC[C@@H](CN5CC6C5CCN6C5COC5)CC4(C)C)c(-c4c(Cl)c(Cl)cc5[nH]ncc45)c3C)C2)C1 (single isomer, unassigned) [Example 278a, 1-(6-(4-(5,6-dichloro-1H-indazol-4-yl)-3-((R)-2,2-dimethyl-4-(((1S*,5S*)-2-(oxetan-3-yl)-2,6-diazabicyclo[3.2.0]heptan-6-yl)methyl)piperidin-1-yl)-5-methyl-1H-pyrazol-1-yl)-2-azaspiro[3.3]heptan-2-yl)prop-2-en-1-one] | > 5000 nM
2 | C=CC(=O)N1CC2(CC(n3nc(N4CC[C@@H](CN5CCN6CCOC[C@@H]6C5)CC4(C)C)c(-c4c(Cl)c(Cl)cc5[nH]ncc45)c3C)C2)C1 (single isomer, unassigned) [Example 279a] | 3800 nM
3 | C=CC(=O)N1CC2(CC(n3nc(N4CC[C@@H](CN5CCN(C6COC6)C6COCC65)CC4(C)C)c(-c4c(Cl)c(Cl)cc5[nH]ncc45)c3C)C2)C1 (single isomer, unassigned) [Example 280a, 1-(6-(4-(5,6-dichloro-1H-indazol-4-yl)-3-((R)-2,2-dimethyl-4-(((4aS*,7aR*)-4-(oxetan-3-yl)hexahydrofuro[3,4-b]pyrazin-1(2H)-yl)methyl)piperidin-1-yl)-5-methyl-1H-pyrazol-1-yl)-2-azaspiro[3.3]heptan-2-yl)prop-2-en-1-one] | > 5000 nM
4 | C=CC(=O)N1CC2(CC(n3nc(N4CC[C@@H](CN5CCN(C6COC6)C6COCC65)CC4(C)C)c(-c4c(Cl)c(Cl)cc5[nH]ncc45)c3C)C2)C1 (single isomer, unassigned) [Example 281a, 1-(6-(4-(5,6-dichloro-1H-indazol-4-yl)-3-((R)-2,2-dimethyl-4-(((4aS*,7aR*)-4-(oxetan-3-yl)hexahydrofuro[3,4-b]pyrazin-1(2H)-yl)methyl)piperidin-1-yl)-5-methyl-1H-pyrazol-1-yl)-2-azaspiro[3.3]heptan-2-yl)prop-2-en-1-one] | 1670 nM
5 | C=CC(=O)N1CC2(CC(n3nc(N4CC[C@@H](CN(C5COC5)C5COC5)CC4(C)C)c(-c4c(Cl)c(Cl)cc5[nH]ncc45)c3C)C2)C1 (single isomer, unassigned) [Example 282a] | 1500 nM
6 | [2H]C1([2H])OC([2H])([2H])C([2H])([2H])N(C[C@@H]2CCN(c3nn(C4CC5(C4)CN(C(=O)C=C)C5)c(C)c3-c3c(Cl)c(Cl)cc4[nH]ncc34)C(C)(C)C2)C1([2H])[2H] (single isomer, unassigned) [Example 283a] | 3000 nM
7 | C=CC(=O)N1CC2(CC(n3nc(N4CC[C@@H](CN5CC6(C5)CN(C)C(=O)O6)CC4(C)C)c(-c4c(Cl)c(Cl)cc5[nH]ncc45)c3C)C2)C1 (single isomer, unassigned) [Example 284a] | 1600 nM
8 | C=CC(=O)N1CC2(CC(n3nc(N4CC[C@@H](CN5CC6(CCCN6C(C)=O)C5)CC4(C)C)c(-c4c(Cl)c(Cl)cc5[nH]ncc45)c3C)C2)C1 (single isomer, unassigned) [Example 285a] | 4600 nM
9 | C=CC(=O)N1CC2(CC(n3nc(N4CC[C@@H](CN5C[C@H](O)C[C@H]5COC)CC4(C)C)c(-c4c(Cl)c(Cl)cc5[nH]ncc45)c3C)C2)C1 (single isomer, unassigned) [Example 286a] | 1100 nM
10 | C=CC(=O)N1CC2(CC(n3nc(N4CC[C@@H](CN5CCN6C[C@@H](O)C[C@@H]6C5)CC4(C)C)c(-c4c(Cl)c(Cl)cc5[nH]ncc45)c3C)C2)C1 (single isomer, unassigned) [Example 287a] | 307 nM
11 | C=CC(=O)N1CC2(CC(n3nc(N4CC[C@@H](CN5CCN6CCOC[C@H]6C5)CC4(C)C)c(-c4c(Cl)c(Cl)cc5[nH]ncc45)c3C)C2)C1 (single isomer, unassigned) [Example 288a] | 4900 nM
12 | C=CC(=O)N1CC2(CC(n3nc(N4CC[C@@H](CN5CCN(C(=O)NC)CC5)CC4(C)C)c(-c4c(Cl)c(Cl)cc5[nH]ncc45)c3C)C2)C1 (single isomer, unassigned) [Example 289a] | 3300 nM
13 | C=CC(=O)N1CC2(CC(n3nc(N4CC[C@@H](CN5CCN(C6COC6)C[C@@H]5CO)CC4(C)C)c(-c4c(Cl)c(Cl)cc5[nH]ncc45)c3C)C2)C1 (single isomer, unassigned) [Example 290a] | 3400 nM
14 | C=CC(=O)N1CC2(CC(n3nc(N4CC[C@@H](CN5CC6(COCCN6C)C5)CC4(C)C)c(-c4c(Cl)c(Cl)cc5[nH]ncc45)c3C)C2)C1 (single isomer, unassigned) [Example 291a] | > 5000 nM
15 | C=CC(=O)N1CC2(CC(n3nc(N4CC[C@@H](CN5CCOC[C@@H](O)C5)CC4(C)C)c(-c4c(Cl)c(Cl)cc5[nH]ncc45)c3C)C2)C1 (single isomer, unassigned) [Example 292a] | 1900 nM
16 | C=CC(=O)N1CC2(CC(n3nc(N4CC[C@@H](CN5CCOC[C@@H](O)C5)CC4(C)C)c(-c4c(Cl)c(Cl)cc5[nH]ncc45)c3C)C2)C1 (single isomer, unassigned) [Example 292b] | 27 nM
17 | C=CC(=O)N1CC2(CC(n3nc(N4CC[C@@H](CN5CC6(O)CC5C6)CC4(C)C)c(-c4c(Cl)c(Cl)cc5[nH]ncc45)c3C)C2)C1 (single isomer, unassigned) [Example 293a] | 4000 nM
18 | C=CC(=O)N1CC2(CC(n3nc(N4CC[C@@H](CN5CC6(O)CC5C6)CC4(C)C)c(-c4c(Cl)c(Cl)cc5[nH]ncc45)c3C)C2)C1 (single isomer, unassigned) [Example 293b] | 10 nM

Next, values leading:

Row | IC50 | SMILES
19 | 8 nM | C=CC(=O)N1CC2(CC(n3nc(N4CC[C@@H](CN5CC6C5CCN6C5COC5)CC4(C)C)c(-c4c(Cl)c(Cl)cc5[nH]ncc45)c3C)C2)C1 (single isomer, unassigned) [Example 278b, 1-(6-(4-(5,6-dichloro-1H-indazol-4-yl)-3-((R)-2,2-dimethyl-4-(((1S*,5S*)-2-(oxetan-3-yl)-2,6-diazabicyclo[3.2.0]heptan-6-yl)methyl)piperidin-1-yl)-5-methyl-1H-pyrazol-1-yl)-2-azaspiro[3.3]heptan-2-yl)prop-2-en-1-one]
20 | 6 nM | C=CC(=O)N1CC2(CC(n3nc(N4CC[C@@H](CN5CCN6CCOC[C@@H]6C5)CC4(C)C)c(-c4c(Cl)c(Cl)cc5[nH]ncc45)c3C)C2)C1 (single isomer, unassigned) [Example 279b]
21 | 7 nM | C=CC(=O)N1CC2(CC(n3nc(N4CC[C@@H](CN5CCN(C6COC6)C6COCC65)CC4(C)C)c(-c4c(Cl)c(Cl)cc5[nH]ncc45)c3C)C2)C1 (single isomer, unassigned) [Example 280b, 1-(6-(4-(5,6-dichloro-1H-indazol-4-yl)-3-((R)-2,2-dimethyl-4-(((4aS*,7aR*)-4-(oxetan-3-yl)hexahydrofuro[3,4-b]pyrazin-1(2H)-yl)methyl)piperidin-1-yl)-5-methyl-1H-pyrazol-1-yl)-2-azaspiro[3.3]heptan-2-yl)prop-2-en-1-one]
22 | < 5 nM | C=CC(=O)N1CC2(CC(n3nc(N4CC[C@@H](CN5CCN(C6COC6)C6COCC65)CC4(C)C)c(-c4c(Cl)c(Cl)cc5[nH]ncc45)c3C)C2)C1 (single isomer, unassigned) [Example 281b, 1-(6-(4-(5,6-dichloro-1H-indazol-4-yl)-3-((R)-2,2-dimethyl-4-(((4aS*,7aR*)-4-(oxetan-3-yl)hexahydrofuro[3,4-b]pyrazin-1(2H)-yl)methyl)piperidin-1-yl)-5-methyl-1H-pyrazol-1-yl)-2-azaspiro[3.3]heptan-2-yl)prop-2-en-1-one]
23 | 7 nM | C=CC(=O)N1CC2(CC(n3nc(N4CC[C@@H](CN(C5COC5)C5COC5)CC4(C)C)c(-c4c(Cl)c(Cl)cc5[nH]ncc45)c3C)C2)C1 (single isomer, unassigned) [Example 282b]
24 | 8 nM | [2H]C1([2H])OC([2H])([2H])C([2H])([2H])N(C[C@@H]2CCN(c3nn(C4CC5(C4)CN(C(=O)C=C)C5)c(C)c3-c3c(Cl)c(Cl)cc4[nH]ncc34)C(C)(C)C2)C1([2H])[2H] (single isomer, unassigned) [Example 283b]
25 | 8 nM | C=CC(=O)N1CC2(CC(n3nc(N4CC[C@@H](CN5CC6(C5)CN(C)C(=O)O6)CC4(C)C)c(-c4c(Cl)c(Cl)cc5[nH]ncc45)c3C)C2)C1 (single isomer, unassigned) [Example 284b]
26 | 7 nM | C=CC(=O)N1CC2(CC(n3nc(N4CC[C@@H](CN5CC6(CCCN6C(C)=O)C5)CC4(C)C)c(-c4c(Cl)c(Cl)cc5[nH]ncc45)c3C)C2)C1 (single isomer, unassigned) [Example 285b]
27 | 7 nM | C=CC(=O)N1CC2(CC(n3nc(N4CC[C@@H](CN5C[C@H](O)C[C@H]5COC)CC4(C)C)c(-c4c(Cl)c(Cl)cc5[nH]ncc45)c3C)C2)C1 (single isomer, unassigned) [Example 286b]
28 | 9 nM | C=CC(=O)N1CC2(CC(n3nc(N4CC[C@@H](CN5CCN6C[C@@H](O)C[C@@H]6C5)CC4(C)C)c(-c4c(Cl)c(Cl)cc5[nH]ncc45)c3C)C2)C1 (single isomer, unassigned) [Example 287b]
29 | 10 nM | C=CC(=O)N1CC2(CC(n3nc(N4CC[C@@H](CN5CCN6CCOC[C@H]6C5)CC4(C)C)c(-c4c(Cl)c(Cl)cc5[nH]ncc45)c3C)C2)C1 (single isomer, unassigned) [Example 288b]
30 | 10 nM | C=CC(=O)N1CC2(CC(n3nc(N4CC[C@@H](CN5CCN(C(=O)NC)CC5)CC4(C)C)c(-c4c(Cl)c(Cl)cc5[nH]ncc45)c3C)C2)C1 (single isomer, unassigned) [Example 289b]
31 | < 5 nM | C=CC(=O)N1CC2(CC(n3nc(N4CC[C@@H](CN5CCN(C6COC6)C[C@@H]5CO)CC4(C)C)c(-c4c(Cl)c(Cl)cc5[nH]ncc45)c3C)C2)C1 (single isomer, unassigned) [Example 290b]
32 | 8 nM | C=CC(=O)N1CC2(CC(n3nc(N4CC[C@@H](CN5CC6(COCCN6C)C5)CC4(C)C)c(-c4c(Cl)c(Cl)cc5[nH]ncc45)c3C)C2)C1 (single isomer, unassigned) [Example 291b]
